According to patent US6479466B1, “Compositions for treating viral infections, and methods therefor” (University of Maryland, priority 1999, dated 2002):

Tests used:
[1] = system: HIV-165R, 74V, 184V; test: p24 antigen in activated PBMCs infected with isolate 65R, 74V, 184V; format: cell-based, HIV-1; conditions: Human immunodeficiency virus 1, PBMC, read-out: ddI IC90
Text: (§1) The present example provides data to test whether viral isolates carrying mutations in the RT gene that confer resistance to ddI could be rendered sensitive when the nucleoside analogue was combined with RV. Viruses containing one or more of the mutations associated with resistance to ddI, e.g., an isolate carrying the L74V mutation which confers primary resistance to ddI, a virus isolate carrying 4 different resistance-associated mutations in the RT gene (HIV-1 RTMDR1) were used to infect PHA-stimulated PBMCs. The HIV-174V isolate, and the HIV-1RTMDR1 isolate (containing the M41L, L74V, V106A and T215Y mutations, conferring resistance to AZT, ddI, nevirapine and other non-nucleotide RT inhibitors) were obtained from Dr. Larder at the National Institutes of Health AIDS Research and Reference Reagent Program (Catalog #2528 and #2529, respectively, Rockville, Md.). In addition, viruses having mutations 65R, 74V, 184V in the RT gene, and a virus containing the multiple-nucleoside-resistance mutation 151M were assayed in infectivity assays using RV plus ddI. The mutations present in the RT gene of each virus as well as their susceptibility to ddI are as follows: HIV-174V(ddIIC90=2.6 μM); HIV-141L, 74V, 106A, 215Y (ddIIC90=4.5 μM); HIV-165R, 74V, 184V (ddIIC90>20 μM) and HIV-162V, 751, 77L, 151M (ddIIC90>20 μM). […]

[2] = system: HTLV-IIIB; test: p24 antigen in infected resting T-lymphocytes exposed to drugs for 6 days before PHA activation; format: cell-based, HIV-1
Procedure: The effect of RV and nucleoside analogues in infected resting T-lymphocytes was evaluated in the present example. Purified resting cells were used. Absence of activated lymphocytes in the preparation was determined by incubation of the cells in the presence of a monoclonal antibody directed against the low affinity IL-2 receptor CD25 (Pharmingen, San Diego, Calif.), and subsequent analysis by flow cytometry. […] Cells were infected with HTLV-IIIB at a multiplicity of infection of 10^4 TCID50/10^6 cells for 3 hours. A high multiplicity of infection (m.o.i.) was used because of a reported short half life of HIV-1 unintegrated DNA in infected resting lymphocytes. Infected cells were washed 3 times with PBS to remove virus excess and resuspended in 10% FBS RPMI medium supplemented with drugs. To ensure that any antiviral activity exerted by the drugs occurred during the resting state, drugs were removed six days after infection by washing with PBS 3 times, and cells were activated by culturing in the presence of PHA for 2 days. Cells were then cultured in IL-2 medium without drugs, and supernatants were monitored for the presence of p24 antigen. Cultures were maintained for 20 days.
Purified resting T-lymphocytes from a seronegative donor were infected with HTLV-IIIB at the high multiplicity of infection and cultured in the presence of 5 or 10 μM RV plus ddI (0, 0.25, 0.5 μM), ddC (0, 0.1 μM) or AZT (0, 4 μM) for 6 days. Concentrations used for ddC and AZT correspond to the highest, nontoxic concentration attainable in plasma of treated individuals. […] On day 6 after infection, drugs were washed away and cells were activated with PHA. The extent of viral replication was evaluated on day 6 (prior to PHA activation) and days 14 and 20 after infection. On day 6 very low amounts of p24 antigen could be detected under every condition tested, likely representing residual virus from the infecting inoculum. […] No toxicity was found by the MTT assay in uninfected culture controls treated with 5 μM RV and 0.5 μM ddI for 20 days under the same conditions.

[3] = system: clinical isolates of HIV-1 (EJC-1 to EJC-4); test: p24 antigen production in activated PBMCs infected with clinical isolates; format: cell-based
Procedure: For infection studies involving PBMCs, cells were stimulated with 2.5 or 10 μg/ml phytohemagglutinin (PHA; Boehringer Mannheim, Indianapolis, Ind.) for 3 days. Stimulated PBMCs were infected by incubation with virus at a multiplicity of infection of 1000 TCID50/10^6 PBMC for 2 hours. PBMCs were then washed three times with PBS and cultured in 5% CO2 at 37° C., in RPMI/10% FBS supplemented with 10 units/ml IL-2 (Boehringer Mannheim) and drugs as appropriate. PBMCs were seeded in 96-well flat-bottom plates at a density of 2×10^5 PBMCs/200 μl. Following 3 days of culture half of the medium was replaced with fresh medium containing IL-2 and drugs. After 7 days of culture, HIV-1 p24 antigen production in the culture supernatant was assayed by ELISA (Coulter, Hialeah, Fla.). The concentration of nucleoside analog, alone and in combination with resveratrol, that reduced the p24 antigen value of the untreated control by 90% (IC90) was calculated by using nonparametric regression analysis. The analysis used the median-effect equation, Fa=1/[1+(Dm/D)]^m, where D is the dose, Fa is the fraction affected, and Dm is the dose required to produce the median effect.
The increase of ddI-antiviral activity by RV was next evaluated in a panel of clinical isolates of HIV-1. […]

[4] = system: HIV-174V isolate (L74V mutation in the RT gene); test: p24 antigen in activated PBMCs infected with ddI-resistant isolate 74V; format: cell-based, HIV-1
Text: as §1

[5] = system: HIV-1RTMDR1 isolate (M41L, L74V, V106A and T215Y); test: p24 antigen in activated PBMCs infected with isolate RTMDR1; format: cell-based
Text: as §1

[6] = Human immunodeficiency virus 1, PBMC, read-out: ddI IC90

Structure (SMILES) | IC90 [1] [µM] | virus production ([2]; ddI 1 μM, previous studies under these conditions) | viral replication after PHA activation ([2]; ddI by itself (0.25, 0.5 μM)) | enhancement of antiviral activity of ddI ([3]; 1 μM ddI plus 5 μM RV, depending on the clinical isolate) | enhancement of ddI activity ([3]; 1 μM ddI plus 10 μM RV) | suppression of viral replication ([4]; 2 μM ddI alone) [%] | IC90 [4, 6] [µM] | suppression of viral replication ([5]; 2 μM ddI alone) [%] | IC90 [5, 6] [µM] | virus production on days 14 and 20 following PHA activation ([2]; RV alone (5 or 10 μM))
OC[C@@H]1CC[C@H](n2cnc3c(O)ncnc32)O1 [ddI, 2′,3′-dideoxyinosine] | > 20 | completely suppress virus production | did not suppress viral replication | 18-185 fold | 88-1200 fold | 28 | 2.6 | 34 | 4.5 | –
Oc1ccc(/C=C/c2cc(O)cc(O)c2)cc1 [RV, trans-3, 4′, 5-trihydroxystilbene] | – | – | – | – | – | – | – | – | – | considerable virus production
